Here are results for 7 molecules from ChEMBL document CHEMBL1132513, “Manipulation of the C(22)-C(27) region of rapamycin: stability issues and biological implications” (Bioorg Med Chem Lett, 1999).

A short description of data set [1]: Half life was determined. The conditions noted are these: rat. The format is ADME.
For data set [2], the species on record is Mus musculus. As to the kind of experiment: In vitro ability to inhibit lymphoproliferation (LAF) in vitro using cells from the thymus of normal BALB/c mice. In kind it is functional.
The nature of data set [3]: The activity in the LAF assay is best expressed as a ratio of the rapamycin IC50 (1-9 nM) /analogue IC50 (R/A). The format is functional.
Data set [4] is described as follows: Ability to bind to FK506 binding protein via its inhibition of peptidyl prolyl cis-trans isomerase activity (PPIase) inherent to FKBP.
Data set [5] deals with Mus musculus. As to the kind of experiment: Ability to prevent transplantation rejection in vivo in mouse skin graft model. The format is functional.

For orientation: half-life means how long it takes for the measured level to halve. As a reminder, the IC50 is the concentration needed to halve the response being measured. A lower IC50 goes with greater potency. Consider `CO[C@H]1C[C@@H]2CC[C@@H](C)[C@@](O)(O2)C(=O)C(=O)N2CCCC[C@H]2C(=O)O[C@H]([C@H](C)C[C@H]2CC[C@H](O)[C@@H](OC)C2)C[C@@H](OC(C)=O)[C@H](C)/C=C(\C)[C@@H](O)[C@@H](OC)C(=O)[C@H](C)C[C@H](C)/C=C/C=C/C=C/1C`, for which the half-life in data set [1] was 34 h. The same molecule had an IC50 in data set [2] of 99 nM. In data set [3], the Ratio is 0.08.
`CO[C@H]1C[C@@H]2CC[C@@H](C)[C@@](O)(O2)C(=O)C(=O)N2CCCC[C@H]2C(=O)O[C@H]([C@H](C)C[C@H]2CC[C@H](O)[C@@H](OC)C2)CC(O)[C@H](C)/C=C(\C)[C@@H](O)[C@@H](OC)C(=O)[C@H](C)C[C@H](C)/C=C/C=C/C=C/1C` (stereo not given in full) showed a half-life in data set [1] of 17.5 h. The values for the IC50 in data set [4] and in data set [2] were 22 nM and 3.7 nM, respectively. In addition, the “Skin Graft Survival” value in data set [5] is recorded as 8.5. Further, the Ratio in data set [3] worked out at 1.3.
For `CCC12CCCCN1C(=O)C(=O)[C@]1(O)O[C@@H](CC[C@H]1C)C[C@H](OC)/C(C)=C/C=C/C=C/[C@@H](C)C[C@@H](C)C(=O)[C@H](OC)[C@H](O)/C(C)=C/[C@@H](C)C(=O)C[C@@H]([C@H](C)C[C@H]1CC[C@H](O)[C@H](OC)C1)OC2=O` (stereo not given in full), the IC50 in data set [4] amounted to 950 nM; in data set [2] it was 140 nM. The Ratio in data set [3] was found to be 0.07.
With `CO[C@H]1C[C@@H]2CC[C@@H](C)[C@@](O)(O2)C(=O)C(=O)N2CCCCC2(C)C(=O)O[C@H]([C@H](C)C[C@H]2CC[C@H](O)[C@@H](OC)C2)CC(=O)[C@H](C)/C=C(\C)[C@@H](O)[C@@H](OC)C(=O)[C@H](C)C[C@H](C)/C=C/C=C/C=C/1C` (stereo not given in full), in data set [1], the half-life is 38.4 h. In addition, the IC50 came to 95 nM in data set [4] and 23 nM in data set [2]. Further, the Survival in data set [5] is 9.33. Moreover, the Ratio in data set [3] came out at 0.42.
The like results for `CO[C@H]1C[C@@H]2CC[C@@H](C)[C@@](O)(O2)C(=O)C(=O)N2CCCCC2(C)C(=O)O[C@H]([C@H](C)C[C@H]2CC[C@H](O)[C@@H](OC)C2)CC(O)[C@H](C)/C=C(\C)[C@@H](O)[C@@H](OC)C(=O)[C@H](C)C[C@H](C)/C=C/C=C/C=C/1C` (stereo not given in full) were, in that order, 14.6 h, 150 nM, 9.9 nM, 7 and 0.23.
The matching figures for `CO[C@H]1C[C@@H]2CC[C@@H](C)[C@@](O)(O2)C(=O)C(=O)N2CCCC[C@H]2C(=O)O[C@H](C[C@H](O)[C@H](C)C[C@@H]2CC[C@@H](O)[C@H](OC)C2)[C@H](C)/C=C(\C)[C@@H](O)[C@@H](OC)C(=O)[C@H](C)C[C@H](C)/C=C/C=C/C=C/1C`: 21.6 h, 310 nM, 16 nM, 7 and 0.42.
Regarding `CO[C@H]1C[C@@H]2CC[C@@H](C)[C@@](O)(O2)C(=O)C(=O)N2CCCC[C@H]2C(=O)O[C@H]([C@H](C)C[C@@H]2CC[C@@H](O)[C@H](OC)C2)CC(=O)[C@H](C)/C=C(\C)[C@@H](O)[C@@H](OC)C(=O)[C@H](C)C[C@H](C)/C=C/C=C/C=C/1C` [SIROLIMUS], the half-life in data set [1] is 13 h. Further, the half-inhibitory concentration (IC50) in data set [4] amounted to 15 nM; in data set [2], 3 nM. For the same molecule, the “Skin Graft Survival” value in data set [5] turned out to be 12.
